Results as given in US20050214945A1, “Htlv-I tax induced killing of p53 null cancer cells” (Eastern Virginia Medical School, priority 2002, published 2005).

Experiments:
REF52 cells [1] = experiment: UV-induced apoptosis, Vybrant Apoptosis Assay; format: cell-based, rat; conditions: Tax-expressing REF52 following UV exposure
Protocol: (§1) Tax-expressing cells were treated with different UV doses (0, 20 and 50 j/m^2) and assessed at different time points post-transduction (4, 8, 12 and 24 hrs). Cells were separated into living, necrotic or apoptotic populations using the triple source fluorescent labeling, Vybrant Apoptosis Assay kit (Molecular Probes) according to the manufacturer's recommendations.
In addition to repair, at least two key events occured in the UV-induced cellular DNA damage response. These are initiation of cell cycle arrest and induction of apoptosis. The ability of Tax-expressing REF52 cells to undergo cell cycle arrest and apoptosis was assessed. Tax-expressing and control cells were subjected to UV irradiation and examined for apoptotic events and cell cycle profile. Prior to exposure to UV, the percent of non-apoptotic, apoptotic and necrotic cells were examined. The three populations were identified using the Vybrant assay. […] The same results were seen using several Tax-expressing cells including GM00010B (data not shown).

p53+/+ cells (REF52) = experiment: Percent surviving cells after sublethal UV; format: cell-based, rat; conditions: 24 hours after treatment, vs control cells
[2] = tested on: p53 mutant background (HeLa); experiment: Percent surviving cells after sublethal UV; format: cell-based; conditions: 24 hours after treatment, vs control cells
Protocol: (§2) It was reasoned that if Tax-expressing cells display impaired damage response in a p53 independent manner then cells both deleted for p53 and expressing Tax would be more prone to apoptotic cell death in response to UV. To test this hypothesis, the apoptotic response of both Tax-expressing and control p53−/− cells was examined. Tax-expressing and control cells were exposed to sublethal doses of UV and examined for percent surviving cells 24 hours after treatment.

p53−/− cells [3] = experiment: Percent surviving cells after sublethal UV; format: cell-based; conditions: 24 hours after treatment
Protocol: as §2

REF52 and p53d cells = experiment: Flow cytometry cell cycle analysis (G1 checkpoint) after UV; format: cell-based; conditions: synchronized at G0, UV treatment, 20% serum; wild type or deleted p53 background
Protocol: For cell cycle analysis, cells were collected by gentle scraping following a rapid EDTA rinse and concentrated by low speed centrifugation and washed in 1×PBS, and fixed with cold 70% ethanol. Cells were stained with a PI solution (PBS 1×, RNase A [10 μg/ml], and Propidium Iodide [50 μg/ml]) followed by cell sorting analysis. FACS data acquired were analyzed by CellQuest software.
To determine whether the failure in cell cycle arrest was due to a failed G1 checkpoint, cells were synchronized at G0 by serum starvation. The cells were then cultured in 20% serum to stimulate return to cell cycle following UV treatment. Cell cycle was determined by total DNA content as described above. […] This was true for either a wild type or deleted p53 background. Therefore, the failure in cell cycle arrest is due at least in part to a failed G1 arrest.

REF52 cells [4] = experiment: Host cell reactivation assay (nucleotide excision repair capacity); format: cell-based, rat; conditions: Tax-expressing REF52 vs control GFP-expressing REF52; UV-damaged CAT reporter
Protocol: pSV2-CAT reporter plasmid was damaged ex vivo by exposure to 1000 j/m^2 of Uv-C light using a UV chamber-GS Gene Linker (Bio-Rad). REF52 and XP-A cells were transfected with 4 μg of UV-irradiated or non-irradiated pSV2-CAT plasmid together with an undamaged reporter plasmid (pMSV-Luc), and with or without Tax plasmid. Forty-eight hours after calcium phosphate transfection, cells were pelleted and resuspended in 250 μl of 250 mM Tris pH8.0. For the Luciferase assay, 25 μl of the total cellular extract was added to 50 μl of luciferase substrate. Luciferase activity was quantitated in a Luminometer. Cat assays were performed in parallel with the same cells as described (Semmes, O., et al., J. Virol. 66(12):7183-92 (1992)). Cat activity was normalized to luciferase activity of the same extract. Repair activity was calculated by setting normalized cat activity from cells cotransfected with non-irradiated pSV2-CAT to 100%. The repair activity of duplicate cells cotransfected with irradiated pSV2-CAT was reported as a percentage of that activity.
In examining the biological response of Tax-expressing cells to UV-induced DNA damage, efficient Nucleotide Excision Repair (NER) ability was tested. The Host Cell Reactivation Assay (HCRA) was used as a measure of NER capacity in Tax-expressing REF52 cells. […] Thus, Tax expression results in reduced NER capacity as measured by HCRA.

REF52 cells [5] = experiment: Cytokinesis block cell cycle progression assay; format: cell-based, rat
Protocol: (§3) Asynchronous cell cultures were seeded on coverslips and exposed to UV irradiation and allowed to recover for 1 hour. Cytochalasin B was added and the cultures incubated for 36 hours. The coverslips were fixed with paraformaldehyde/methanol and stained with propidium iodide. Slides were prepared and cell nuclei examined by microscopy. Bi-nucleus cells were considered dividing.
Next, the cell cycle response of Tax-expressing cells was measured. REF52 and REF+Tax cells were subjected to the cytokinesis block cell cycle arrest assay to determine the intactness of the damage-induced checkpoint. In this assay, asynchronous cells were exposed to UV and incubated with cytochalasin B one hour later. The cell population was examined 36 hours later and assessed for division events. […] In contrast REF52 cells exposed to UV light initiated cell cycle arrest and presented a predominately (>90%) mononuclear cell population. However, Tax-expressing REF52 cells, exposed to UV, presented nearly 75% of the population as binucleated cells indicating a failure to arrest in cell cycle in response to UV-induced DNA damage. For each data point, 1000 cells were analyzed.

p53 = experiment: Nuclear accumulation of p53 after UV (immunostaining); format: cell-based, rat; conditions: Tax-expressing REF52 in response to UV damage
Description: A key player in initiation of the UV-repair response and activation of cell cycle arrest is p53. Activation of p53 is signaled by an accumulation of P53 in the nucleus of cells exposed to UV light. To examine whether Tax-expressing cells display this early p53 response, REF52 cells were transduced with suboptimal viral titers to produce an estimated 50% transduction efficiency. The cells were exposed to UV and examined for nuclear expression of p53.

p53−/− cells [6] = experiment: UV-induced apoptosis, Vybrant Apoptosis Assay; format: cell-based; conditions: UV 20 and 50 J/m^2, 12 and 24 hours
Protocol: as §1
The early apoptotic response of Tax-expressing p53−/− cells was also observed. In this series of experiments the cell groups were exposed to 0 J/m^2, 20 J/m^2 and 50 J/m^2 and apoptosis measured at 12 and 24 hours (FIG. 7). […] This level of UV-induced apoptosis is equivalent to that seen in cells defective in NER (FIG. 3).

REF52 cells [7] = experiment: Global nucleotide excision repair assay (unscheduled DNA synthesis, BrdU); format: cell-based, rat; conditions: G1 synchronized cells, UV 20 j/m^2, BrdU
Protocol: REF52 cells were seeded onto glass coverslips and transduced to express Tax at 25% efficiency. Sub-confluent Tax-expressing REF52 cells were cultured in 0.5% serum for 48 hrs, to synchronize at G0, prior to irradiation. The cells were released from G0 with addition of complete medium. At four hours post-release, the cells were irradiated with UV light (20 j/m^2) using a UV chamber-GS Gene Linker (Bio-Rad) and incubated for 30 min with 10 μM BrdU containing medium. The cells were then washed 4× with PBS and fixed in 4% paraformaldehyde. Cells were permeabilized with 2 minutes incubation in 100% methanol and washed 4× with PBS. The prepared cells were then reacted with both anti-Tax and anti-BrdU in PBS (containing 2% BSA). Primary antibodies were removed by washing 4× with 1% Tween 20 in PBS (PBS-Tween). Secondary conjugated antibodies were reacted for one hour at room temperature (RT). The cells were then washed with PBS-Tween and the slips were inverted onto slides with Vecta Shield (Vector Laboratories, CA). Incorporation of BrdU into the nucleus of cells at G1 corresponded to unscheduled repair synthesis.
A failure in damage-induced cell cycle arrest would result in reduced repair efficiency and could explain the Tax-associated NER deficiency. […]

[8] = tested on: Hela cells and p53 deleted cell line; experiment: Cytokinesis block cell cycle progression assay in p53 repressed/deleted cells; format: cell-based; conditions: exposed to UV, cytochalasin B, 36 hours; partial (25%) and 100% transduction
Protocol: as §3
To test this hypothesis, the cell cycle arrest response was examined in Tax-expressing and control p53−/− cells. Tax-expressing and control Hela cell groups were subjected to the cytokinesis block cell cycle progression assay as described above. Each cell group was exposed to UV and incubated with cytochalasin B one hour later. The cells were examined after 36 hours for the presence of binucleated dividing cells. Hela cells transduced to express Tax at 25% efficiency. Tax-expressing Hela cells were identified by immunofluorescence using anti-Tax mouse monoclonal antibody and FITC-conjugated anti-mouse secondary antibody. The nuclei were stained with propidium iodide. Hela and Tax-expressing Hela formed binuclei indicating normal division. […] In experiments using 100% transduction of Tax, 1000 cell events were counted.

p53 and p21 = experiment: Immunoblot of p53 and p21 after UV; format: cell-based, rat; conditions: UV-induced DNA damage; Tax-expressing and control REF52
Protocol: Approximately 2×10^6 cells were harvested and proteins extracted with […] Mammalian Protein Extraction Reagent (Pierce). 50 μl of 4× Laemmli buffer was added to the lysate. […] of the lysate was electrophoresed through a 10% SDS polyacrylamide gel. The proteins were electroblotted onto an Immobolin-P membrane (Millipore), and probed with the indicated primary antibody and the appropriate secondary alkaline phosphatase-conjugated antibody. Immunoreactivity was detected via Western Star chemiluminescence protein detection (Tropix).
To further analyze the p53 response in Tax-expressing cells, both Tax-expressing and control REF52 cells were examined for stabilization of steady-state p^53 and transient induction of p21. Since induction of p21 is a key event in p53-mediated cell cycle arrest, analysis of the p21 levels in Tax-expressing cells could determine the integrity of this signal. Tax-expressing and control cells were exposed to UV and harvested for western analysis pre-exposure and at eight hours and twenty four hours post exposure. […] Thus, one p53-dependent signal for cell cycle arrest, transient induction of p21, was intact.

## Tax
REF52 cells [1]
  apoptotic response to DNA damage: normal apoptotic response
p53+/+ cells (REF52)
  percent of surviving cells: no decreased percent of surviving cells
[2]
  percent of surviving cells: no decreased percent of surviving cells
p53−/− cells [3]
  cell death in response to UV exposure: significant cell death
REF52 and p53d cells
  percentage of cells leaving G1: consistent and significant increase
REF52 cells [4]
  NER capacity: significantly reduced
REF52 cells [5]; exposed to UV, cytochalasin B, examined 36 hours later, 1000 cells per data point
  binucleated cells: ~75%
REF52 cells [5]; unexposed to UV
  binucleated cell profile without UV: same profile as in the absence of Tax
p53
  nuclear accumulation of P53: strong nuclear accumulation of P53
p53−/− cells [6]
  apoptosis: Significant apoptosis
REF52 cells [7]
  UV-induced unscheduled DNA synthesis: indistinguishable from control cells
[8]
  percent of binucleated cells: > 72%
p53 and p21
  steady-state protein levels of p53: stabilization of steady-state protein levels of p53
